One series deals with A431 WT. The experiment in a line: Cell proliferation assay (CellTiter-Glo), A431 WT. The class given is cell-based. Conditions: Homo sapiens, A-431; A431 WT cells, 72 hour incubation, CTG readout. The procedure: (§1) • DMEM Medium (Gibco, Cat#11965118) • RPMI1640 Medium (Gibco, Cat#11875119) • Fetal Bovine Serum (FBS) (GBICO, Cat#10099-141) • CellTiter-Glo® Luminescent Cell Viability Assay Kit (Promega, Cat#G7572) 96-well, Black, Clear Flat Bottom Plate (Corning®, Cat# 3603)
(§2) • SpectraMax Multimode Microplate Reader MD, 2104-0010A; • CO2 Incubator, Thermo Scientific 3100 Series; • Biosafety Cabinet, Thermo Scientific, 1300 Series A2; • Inverted Microscope, Olympus, CKX41SF; • Siemens Refrigerator, KK25E76TI.
(§3) • 1. Cell Culture and Inoculation: • (1) Harvest cells in a logarithmic growth phase and count the cells using a […]. Test cell viability using a trypan blue exclusion method to ensure that cell viability is above 90%. • (2) Adjust the cell concentration to desired final density; and add 90 µL of cell suspension to a 96-well plate. • (3) Incubate the cells overnight at 37°C, under 5% CO2 and 95% humidity in the 96-well plate. • 2. T0 Reference Data: • (1) Add 10 µL PBS to each well of the T0 plate containing cells. • (2) Thaw the CTG reagent and equilibrate the plate to room temperature for 30 minutes. • (3) Add an equal volume of CTG solution to each well. • (4) Lyse cells by shaking on an orbital shaker for 5 minutes. • (5) Leave the plate at room temperature for 20 minutes to stabilize the luminescence signal. • (6) Read the T0 […]. • 3. Compound Dilution and Addition • (1) Add a corresponding volume of DMSO to a corresponding compound powder according to the compound information sheet to prepare a 10 mM stock solution. • (2) Prepare 1000-fold and 3.16-fold diluted compound solutions. • (3) Dilute the 1000× diluted compound solution 100-fold with PBS to prepare a 10-fold compound solution, with a maximum concentration of 10 µM, nine concentrations and 3.16-fold dilution. Then add 10 µL of the drug solution concentration to individual wells of the 96-well plate seeded with cells. Test each compound concentration in triplicate wells, and the final DMSO concentration is 0.1%. • (4) Incubate the cells in the 96-well plate containing the drug compounds at 37°C, under 5% CO2, and 95% humidity for an additional 72 hour period prior to performing the CTG analysis. • 4. Fluorescence Signal Reading • (1) Thaw the CTG reagent and equilibrate the plate to room temperature for 30 minutes. • (2) Add an equal volume of CTG solution to each well. • (3) Lyse cells by shaking on an orbital shaker for 5 minutes. • (4) Leave the plate at room temperature for 20 minutes to stabilize the […]. • (5) Read fluorescence value. • 5. Data Processing
(§4) Analyze the data by using GraphPad Prism 7.0 software, and use Non-linear S-curve regression to fit the dose-response curves, to calculate the IC50 values (in nM). The specific experiment results are presented in Table 1: [formula] Table 1: Biology Test Results
On the technique in general: In ATP-based viability assays light output follows the ATP content of the culture.

The test system of series [1] is Ba/F3 EGFR-L858R-T790M-C797S (LTC). The experiment in a line: Cell proliferation assay (CellTiter-Glo), Ba/F3 LTC. The class given is cell-based. Conditions: Mus musculus, BaF3; Ba/F3 EGFR-L858R-T790M-C797S cells, 72 hour incubation, CTG readout. The procedure:
as §1, §2, §3, §4

The subject of series [2] is Ba/F3 EGFR-DEL19-T790M-C797S (DTC). Briefly: Cell proliferation assay (CellTiter-Glo), Ba/F3 DTC. The class given is cell-based. Conditions: Ba/F3 EGFR-DEL19-T790M-C797S cells, 72 hour incubation, CTG readout; read-out: IC50 BaF3 DTC. The procedure:
as §1, §2, §3, §4

Series [3] has as its system Ba/F3 EGFR-L858R-C797S (LC). Briefly: Cell proliferation assay (CellTiter-Glo), Ba/F3 LC. The class given is cell-based. Conditions: Mus musculus, BaF3; Ba/F3 EGFR-L858R-C797S cells, 72 hour incubation, CTG readout. The procedure:
as §1, §2, §3, §4

The test system of series [4] is Ba/F3 EGFR-DEL19-C797S (DC). The experiment in a line: Cell proliferation assay (CellTiter-Glo), Ba/F3 DC. The class given is cell-based. Conditions: Mus musculus, BaF3; Ba/F3 EGFR-DEL19-C797S cells, 72 hour incubation, CTG readout. The procedure: as §1, §2, §3, §4
Series [5] is described as follows: Pharmacokinetic experiment in mice. The class given is in vivo. Conditions: male, mouse; ICR mice, single oral administration (PO), 10 mg/kg, plasma. From the text: The purpose of this trial is to study the pharmacokinetic behavior of some compounds of the present invention, and the administration method is: Single oral administration (PO) to ICR mice.
The compounds used in this trial are from the compounds in the specific examples of the present invention and the listed positive compounds.
ICR mice male N=9 original source: Shanghai Sippr-Bk Lab Animal Co., Ltd.
The compounds are weighed and dissolved in the corresponding solution (10% PG + 10% Solutol® + 80% pH3 citrate buffer). The mixture is then shaken well and sonicated to prepare a 1 mg/mL stock solution. Nine mice are orally administered at a dose of 10 mg/kg (or IV 2 mg/kg) after an overnight fast.
About 90 µL of blood is collected via the submandibular vein per time point, heparin sodium anticoagulant is added, the sample is placed on ice after collection, and plasma is centrifuged within 1 hour (centrifugation conditions: 8,000 rpm, 6 minutes, 2-8°C). The blood collection timepoints are 0, 0.25, 0.5, 1, 2, 4, 6, 8 and 24 h. The samples are stored in a -20°C refrigerator.
The plasma sample is 40 µL, 160 µL of ice-cold acetonitrile containing internal standard is added, vortexed for 3 minutes, and centrifuged at 11,000 rpm for 5 minutes. 100 µL of the supernatant is taken and added to 100 µL of water, 5 µL of the sample is taken and injected into LC/MS/MS for analysis.

Usually IC50 stands for the point on the concentration scale where inhibition reaches its midpoint. Broadly, the AUC(0-t) is the area under the concentration-time curve up to a stated or last time point. Low values mean less exposure, high ones more exposure. As a reminder, the Cmax is the maximum level reached in the sampled fluid or tissue. One may read the half-life as the time needed for the level to fall by half in the phase considered. A high value points to slow loss.

SMILES strings stand for the structures.

Take `Cn1ncc2c1OCC1(CCCC1)Cn1nc(N3CC[C@@H](NS(C)(=O)=O)C3)c3cnc(cc31)Nc1ccnc-2n1` [Example 48, (R)-N-(1-(1'-methylspiro(cyclopentane-1,6'-8-oxa-3-aza-4(6,1)-pyrazolo[4,3-c]pyridina-2(2,4)-pyrimidina-1(4,5)-pyrazolacyclooctaphane)-3'-yl)pyrrolidin-3-yl)metha nesulfonamide]: the concentration for half-maximal inhibition (IC50) with A431 WT worked out at 357 nM; in series [1], 4.5 nM; in series [2], 2 nM; in series [3], 7.6 nM; in series [4] it was 2.5 nM.
In the same order, the values of `Cn1ncc2c1OCC1(CCCCC1)Cn1nc(N3CC[C@@H](CS(C)(=O)=O)C3)c3cnc(cc31)Nc1ccnc-2n1` [Example 32, (R)-1'-methyl-3'-(3-((methylsulfonyl)methyl)pyrrolidin-1-yl)spiro(cyclohexane-1, 6'-8-oxa-3-aza-4(6,1)-pyrazolo[4,3-c]pyridina-2(2,4)-pyrimidina-1(4,5)-pyrazolacyclooctaphane)] are 543 nM, 12.1 nM, 10.5 nM, 14.9 nM and 5.1 nM.
Regarding `Cn1ncc2c1OCC1(CCCC1)Cn1nc(N3CC[C@@H](CS(C)(=O)=O)C3)c3cnc(cc31)Nc1ccnc-2n1` [Example 27, (R)-1'-methyl-3'-(3-((methylsulfonyl)methyl)pyrrolidin-1-yl)spiro(cyclopentane-1 ,6'-8-oxa-3-aza-4(6,1)-pyrazolo[4,3-c]pyridina-2(2,4)-pyrimidina-1(4,5)-pyrazolacyclooctaphane)], the IC50 in the series with A431 WT was 587 nM; in series [1], 5.2 nM; in series [2] it was 1 nM; in series [3], 13.4 nM; in series [4] it was 1.1 nM.
As for `CCCCS(=O)(=O)C[C@H]1CCN(c2nn3c4cc(ncc24)Nc2ccnc(n2)-c2cnn(C)c2OCC2(CCCC2)C3)C1` [Example 43, (S)-3'-(3-((butylsulfonyl)methyl)pyrrolidin-1-yl)-1'-me thylspiro(cyclopentane-1,6' -8-oxa-3-aza-4(6,1)-pyrazolo[4,3-c]pyridina-2(2,4)-pyrimidina-1(4,5)-pyrazolacyclooctaphane)], the IC50 in the series on A431 WT turned out to be 700 nM; in series [1], 1.3 nM; in series [2] it was 3.6 nM; in series [3], 2.9 nM; in series [4], 5 nM.
Turning to `CCS(=O)(=O)N[C@H]1CCN(c2nn3c4cc(ncc24)Nc2ccnc(n2)-c2cnn(C)c2OCC2(CCCC2)C3)C1` [Example 57], the IC50 was 251 nM with A431 WT; 7.9 nM in series [1]; 3.1 nM in series [2]; 22.8 nM in series [3]; 5.3 nM in series [4].
On the same counts, the results for `CN1CC(C#Cc2nn3c4cc(ncc24)Nc2ccnc(n2)-c2cnn(C)c2OCC2(CCCC2)C3)C1` [Example 8, 1'-methyl-3'-((1-methylazetidin-3-yl)ethynyl)spiro(cyclopentane-1,6'-8-oxa-3-aza-4(6,1)-pyrazolo[4,3-c]pyridina-2(2,4)-pyrimidina-1(4,5)-pyrazolacyclooctaphane)] are 499 nM, 39.4 nM, 27.8 nM, 63.5 nM and 31.5 nM.
On the same counts, the results for `COC(=O)N[C@H]1CCN(c2nn3c4cc(ncc24)Nc2ccnc(n2)-c2cnn(C)c2OCC2(CCCC2)C3)C1` [Example 55, Methyl (S)-(1-(1'-methylspiro(cyclopentane-1,6'-8-oxa-3-aza-4(6,1)-pyrazolo[4,3-c]pyridina-2(2,4)-pyrimidina-1(4,5)-pyrazolacyclooctaphane)-3'-yl)pyrrolidin-3-yl)carbamate] are 329 nM, 12 nM, 8.5 nM, 33.1 nM and 12.1 nM.
In the case of `Cn1ncc2c1OCC1(CCCC1)Cn1nc(N3CC[C@@H](O)C3)c3cnc(cc31)Nc1ccnc-2n1` [Example 22, (R)-1-(1'-methylspiro(cyclopentane-1,6'-8-oxa-3-aza-4(6,1)-pyrazolo[4,3-c]pyridina-2(2,4)-pyrimidina-1(4,5)-pyrazolacyclooctaphane)-3' -yl)pyrrolidin-3-ol], the results for the IC50 (in the series with A431 WT; in series [1]; in series [3]) were 409 nM, 5.9 nM and 13.2 nM, respectively. Also, the AUC(0-t) in series [5] worked out at 2340 ng·h/mL. The compound further came in with a peak concentration (Cmax) in series [5] of 503 ng/mL. In series [5], the half-life was 3 h.
For the compound `Cn1ncc2c1OCC1(CCCC1)Cn1nc(N3CC[C@H](CS(=O)(=O)C4CC4)C3)c3cnc(cc31)Nc1ccnc-2n1` [Example 40, (S)-3'-(3-((cyclopropylsulfonyl)methyl)pyrrolidin-1-yl)-1'-methylspiro(cyclopentane-1,6'-8-oxa-3-aza-4(6,1)-pyrazolo[4,3-c]pyridina-2(2, 4)-pyrimidina-1(4,5)-pyrazolacyclooctaphane)], the IC50 in the series on A431 WT came to 320 nM. Also, in series [1], 0.7 nM corresponded to half-maximal inhibition (IC50). In addition, in series [3], half-maximal inhibition (IC50) required 2.1 nM. In series [5], this compound had an AUC(0-t) of 4940 ng·h/mL, a peak concentration (Cmax) of 1350 ng/mL and a half-life of 3.5 h.
In the series with A431 WT, `CCN1CCC(C#Cc2nn3c4cc(ncc24)Nc2ccnc(n2)-c2cnn(C)c2OCC2(CCCC2)C3)CC1` [Example 7, 3'-((1-ethylpiperidin-4-yl)ethynyl)-1'-methylspiro(cyclopentane-1,6'-8-oxa-3-aza-4(6,1)-pyrazolo[4,3-c]pyridina-2(2,4)-pyrimidina-1(4,5)-pyrazolacyclooctaphane)] gave a half-inhibitory concentration (IC50) of 1660 nM. The 50% inhibitory concentration (IC50) in series [1] came out at 24.6 nM. The compound also showed an IC50 in series [3] of 43.5 nM. In addition, in series [5], the AUC(0-t) is 2520 ng·h/mL, the concentration peaked (Cmax) at 193 ng/mL and the half-life is 5.6 h.
Turning to `Cn1ncc2c1OCC1(CCCC1)Cn1nc(N3CC[C@@](C)(O)C3)c3cnc(cc31)Nc1ccnc-2n1` [Example 24, (R)-3-methyl-1-(1'-methylspiro(cyclopentane-1,6'-8-oxa-3-aza-4(6,1)-pyrazolo[4,3-c]pyridina-2(2,4)-pyrimidina-1(4,5)-pyrazolacyclooctaphane)-3'-yl)pyrrolidin-3-ol], the IC50 is 378 nM in the series on A431 WT, 6.1 nM in series [1], 0.7 nM in series [2] and 4.4 nM in series [4].

(Values after patent EP4563579A1, “MACROCYCLIC EGFR INHIBITOR, AND PREPARATION METHOD THEREFOR AND PHARMACEUTICAL USE THEREOF” (Abbisko Therapeutics Co., Ltd., priority 2022, dated 2024).)
